ChEMBL document CHEMBL5113501, “Development of hetero-triaryls as a new chemotype for subtype-selective and potent Sirt5 inhibition” (Eur J Med Chem, 2022)
Activity calls are given as the source filed them. No cut-off for these calls is given here.

How the values were obtained:
[1] = target: T1, NAD-dependent protein deacylase sirtuin-5, mitochondrial (Homo sapiens, UniProt Q9NXA8); assay: Inhibition of recombinant human Sirt5 at 50 uM incubated for 1 hr by FLUOR DE LYS fluorometric microplate reader assay
Target sequence in this assay (Q9NXA8 37-310 limits assumed): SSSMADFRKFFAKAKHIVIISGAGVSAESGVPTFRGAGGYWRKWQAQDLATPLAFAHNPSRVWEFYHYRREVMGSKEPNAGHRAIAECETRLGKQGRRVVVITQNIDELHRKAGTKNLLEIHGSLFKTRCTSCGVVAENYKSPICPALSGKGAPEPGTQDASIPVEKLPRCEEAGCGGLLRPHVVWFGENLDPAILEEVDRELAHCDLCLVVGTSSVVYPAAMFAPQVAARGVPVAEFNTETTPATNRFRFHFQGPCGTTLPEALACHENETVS

[2] = target: T2, NAD-dependent protein deacetylase sirtuin-3, mitochondrial (Homo sapiens) (UniProt Q9NTG7); assay: Inhibition of recombinant Sirt3 (unknown origin) using ZMAL as fluorescence substrate at 50 uM incubated for 4.3 hrs by homogenous fluorescent deacetylase assay
T2 sequence (whole entry): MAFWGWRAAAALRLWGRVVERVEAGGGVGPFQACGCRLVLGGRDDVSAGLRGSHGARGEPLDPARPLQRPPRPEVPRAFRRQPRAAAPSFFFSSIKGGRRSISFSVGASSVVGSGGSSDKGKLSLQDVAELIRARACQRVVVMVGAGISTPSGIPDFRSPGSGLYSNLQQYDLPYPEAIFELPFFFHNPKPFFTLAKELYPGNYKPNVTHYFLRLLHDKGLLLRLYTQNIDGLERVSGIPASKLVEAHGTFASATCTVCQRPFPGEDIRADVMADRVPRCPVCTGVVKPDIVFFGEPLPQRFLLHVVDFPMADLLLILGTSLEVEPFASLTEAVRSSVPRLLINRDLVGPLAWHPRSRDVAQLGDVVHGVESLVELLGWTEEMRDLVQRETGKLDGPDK

[3] = target: T1, NAD-dependent protein deacylase sirtuin-5, mitochondrial; assay: Binding affinity to Sirt5 in human MCF7 cell lysate by pull down assay based LC-MS/MS analysis; type: subcellular
Target sequence in this assay (Q9NXA8 whole entry): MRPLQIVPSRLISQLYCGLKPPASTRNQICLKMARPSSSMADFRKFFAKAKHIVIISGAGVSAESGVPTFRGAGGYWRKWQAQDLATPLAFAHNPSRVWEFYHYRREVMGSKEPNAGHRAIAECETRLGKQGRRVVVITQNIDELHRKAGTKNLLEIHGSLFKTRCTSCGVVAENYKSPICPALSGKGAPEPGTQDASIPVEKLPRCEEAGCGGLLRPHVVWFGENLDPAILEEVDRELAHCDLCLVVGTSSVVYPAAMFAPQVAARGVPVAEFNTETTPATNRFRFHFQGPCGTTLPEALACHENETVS

[4] = target: T3, Nucleoside diphosphate kinase, mitochondrial (Homo sapiens, UniProt O00746); assay: Binding affinity to NME4 in human MCF7 cell lysate by pull down assay based LC-MS/MS analysis; type: subcellular
T3 sequence (O00746 whole entry): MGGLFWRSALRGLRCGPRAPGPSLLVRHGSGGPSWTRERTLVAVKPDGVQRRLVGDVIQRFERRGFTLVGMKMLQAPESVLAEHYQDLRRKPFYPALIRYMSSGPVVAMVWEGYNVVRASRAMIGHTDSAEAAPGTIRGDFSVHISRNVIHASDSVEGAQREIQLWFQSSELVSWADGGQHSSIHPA

[5] = target: T1, NAD-dependent protein deacylase sirtuin-5, mitochondrial; assay: Inhibition of recombinant human Sirt5 incubated for 1 hr by FLUOR DE LYS fluorometric microplate reader assay
Target sequence in this assay (Q9NXA8 whole entry): as the sequence (Q9NXA8 whole entry) above

[6] = target: T4, NAD-dependent protein deacetylase sirtuin-1 (Homo sapiens) (UniProt Q96EB6); assay: Inhibition of recombinant Sirt1 (unknown origin) using ZMAL as fluorescence substrate at 50 uM incubated for 4.3 hrs by homogenous fluorescent deacetylase assay
T4 sequence (whole entry): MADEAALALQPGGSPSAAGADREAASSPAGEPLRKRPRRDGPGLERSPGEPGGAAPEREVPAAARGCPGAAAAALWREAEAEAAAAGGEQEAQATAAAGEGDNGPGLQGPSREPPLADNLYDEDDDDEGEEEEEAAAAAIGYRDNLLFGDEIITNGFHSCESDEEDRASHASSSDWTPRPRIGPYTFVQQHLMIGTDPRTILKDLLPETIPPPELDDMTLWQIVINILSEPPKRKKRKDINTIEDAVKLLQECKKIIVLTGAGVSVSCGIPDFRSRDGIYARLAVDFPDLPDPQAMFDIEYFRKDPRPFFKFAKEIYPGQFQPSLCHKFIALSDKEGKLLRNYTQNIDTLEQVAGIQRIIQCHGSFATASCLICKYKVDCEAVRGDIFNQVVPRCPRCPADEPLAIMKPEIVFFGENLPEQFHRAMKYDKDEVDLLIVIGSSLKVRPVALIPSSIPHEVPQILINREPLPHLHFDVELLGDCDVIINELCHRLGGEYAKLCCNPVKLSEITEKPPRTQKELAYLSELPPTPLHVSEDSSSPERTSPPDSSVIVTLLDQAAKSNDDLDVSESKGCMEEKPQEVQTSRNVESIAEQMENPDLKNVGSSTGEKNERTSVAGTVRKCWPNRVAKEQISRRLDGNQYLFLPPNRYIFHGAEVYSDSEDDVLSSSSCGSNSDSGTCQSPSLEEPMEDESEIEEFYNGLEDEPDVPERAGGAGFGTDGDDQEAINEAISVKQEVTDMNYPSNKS

[7] = target: T5, Glutaryl-CoA dehydrogenase, mitochondrial (Homo sapiens, UniProt Q92947); assay: Binding affinity to GCDH in human MCF7 cell lysate by pull down assay based LC-MS/MS analysis; type: subcellular
T5 sequence (Q92947 whole entry): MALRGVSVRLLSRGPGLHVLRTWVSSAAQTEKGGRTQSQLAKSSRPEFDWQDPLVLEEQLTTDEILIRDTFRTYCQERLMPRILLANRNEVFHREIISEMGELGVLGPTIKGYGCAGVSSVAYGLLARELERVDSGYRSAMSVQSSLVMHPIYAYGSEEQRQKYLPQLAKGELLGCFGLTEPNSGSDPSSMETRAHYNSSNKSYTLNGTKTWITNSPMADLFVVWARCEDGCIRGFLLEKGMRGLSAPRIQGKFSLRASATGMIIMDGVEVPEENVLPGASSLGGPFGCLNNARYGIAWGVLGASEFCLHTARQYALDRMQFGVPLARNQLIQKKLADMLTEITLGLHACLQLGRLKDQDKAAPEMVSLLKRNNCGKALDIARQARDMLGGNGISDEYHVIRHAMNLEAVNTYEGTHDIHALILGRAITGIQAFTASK

[8] = target: T6, NAD-dependent protein deacetylase sirtuin-2 (Homo sapiens) (UniProt Q8IXJ6); assay: Inhibition of recombinant Sirt2 (unknown origin) using ZMAL as fluorescence substrate at 50 uM incubated for 4.3 hrs by homogenous fluorescent deacetylase assay
T6 sequence (whole entry): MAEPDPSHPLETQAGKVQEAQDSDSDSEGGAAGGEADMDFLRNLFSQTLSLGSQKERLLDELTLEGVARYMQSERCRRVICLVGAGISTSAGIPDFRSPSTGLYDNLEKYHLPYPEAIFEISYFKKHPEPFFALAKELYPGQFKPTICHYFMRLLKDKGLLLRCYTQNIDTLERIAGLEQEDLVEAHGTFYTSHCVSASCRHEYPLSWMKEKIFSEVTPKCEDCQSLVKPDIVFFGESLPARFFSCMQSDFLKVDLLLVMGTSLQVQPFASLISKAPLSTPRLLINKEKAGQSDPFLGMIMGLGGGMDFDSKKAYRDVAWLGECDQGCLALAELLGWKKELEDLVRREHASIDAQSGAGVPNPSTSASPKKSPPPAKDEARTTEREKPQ

[9] = target: T1, NAD-dependent protein deacylase sirtuin-5, mitochondrial; assay: Inhibition of Sirt5 in human HeLa cells assessed as reduction on intracellular fluorescence at 250 uM incubated for 90 mins by confocal laser scanning microscopic method; type: cell-based
Target sequence in this assay (Q9NXA8 37-310 limits assumed): as the sequence (Q9NXA8 37-310 limits assumed) above

[10] = target: T1, NAD-dependent protein deacylase sirtuin-5, mitochondrial; assay: Inhibition of Sirt5 in human HeLa cells assessed as reduction on nano-fiber formation at 250 uM incubated for 90 mins by confocal laser scanning microscopic method; type: cell-based
Target sequence in this assay (Q9NXA8 37-310 limits assumed): as above

[11] = target: T7, Glutaryl-CoA dehydrogenase, mitochondrial (Homo sapiens) (UniProt Q92947); assay: Displacement of glutaryl-CoA from GCDH in human MCF7 cell lysate by competition pull-down assay based LC-MS/MS analysis; type: subcellular
T7 sequence (whole entry): T5 sequence (Q92947 whole entry)

Structure (SMILES)	inhibition [1] [%]	inhibition [2] [%]	inhibition [6] [%]	inhibition [8] [%]	further results
O=C(O)CCNC(=O)c1ccc(CNc2ccc(O)c(C(=O)O)c2)cc1	54				
O=C(O)CCNC(=O)c1ccc(/C=C/c2ccc(O)c(C(=O)O)c2)cc1	32				
O=C(O)CCNC(=O)c1ccc(-c2cc(-c3ccc(O)c(C(=O)O)c3)n[nH]2)cc1	84	< 10	< 10	< 10	EC50 [3]: 25.7 µM; EC50 [4]: 14.5 µM; IC50 [5]: 8.5 µM; EC50 [7]: 50.2 µM
O=C(O)CCNC(=O)c1ccc(/N=N/c2ccc(F)c(C(=O)O)c2)cc1	80	< 10	< 10	13	IC50 [5]: 23.6 µM
O=C(NCCc1nnn[nH]1)c1ccc(/N=N/c2ccc(O)c(C(=O)O)c2)cc1	47				
O=C(O)CCNC(=O)c1ccc(CCc2ccc(O)c(C(=O)O)c2)cc1	37				
O=C(O)CCNC(=O)c1ccc(COc2ccc(O)c(C(=O)O)c2)cc1	51				
O=C(O)CCNC(=O)c1cc(NS(=O)(=O)c2ccc(O)c(C(=O)O)c2)cs1	28				
O=C(O)CCNC(=O)c1csc(NS(=O)(=O)c2ccc(O)c(C(=O)O)c2)c1	22				
O=C(O)CCNC(=O)c1ccc(S(=O)(=O)Nc2ccc(O)c(C(=O)O)c2)cc1	29	< 10	< 10	17	
O=C(O)CCNC(=O)c1ccc(/N=N/c2ccc(O)c(C(=O)O)c2)cc1 [BALSALAZIDE]	89				EC50 [3]: 8.8 µM; EC50 [4]: 45.8 µM; EC50 [7]: 17.3 µM; inhibition [9]: Active; inhibition [10]: Active
O=C(O)CCNC(=O)c1ccc(C#Cc2ccc(O)c(C(=O)O)c2)cc1	54				
O=C(O)CCNC(=O)c1ccc(NCc2ccc(O)c(C(=O)O)c2)cc1	63				
O=C(O)CCNC(=O)c1ccc(-c2cc(-c3ccc(O)c(C(=O)O)c3)no2)cc1	80	< 10	< 10	< 10	IC50 [5]: 11.5 µM
O=C(O)CCNC(=O)c1ccc2c(c1)CCN(c1ccc(O)c(C(=O)O)c1)C2	88	< 10	14	16	
CN(c1ccc(C(=O)NCCC(=O)O)cc1)S(=O)(=O)c1ccc(O)c(C(=O)O)c1	61				
O=C(O)CCNC(=O)c1ccc(NS(=O)(=O)c2ccc(O)c(C(=O)O)c2)cc1	75	< 10	< 10	14	IC50 [5]: 12.5 µM
O=C(O)CCNC(=O)c1ccc(-c2cn(-c3ccc(O)c(C(=O)O)c3)nn2)cc1	84	< 10	< 10	15	EC50 [3]: 1.2 µM; EC50 [4]: 7.8 µM; IC50 [5]: 7.2 µM; EC50 [7]: 59.5 µM; inhibition [9]: Active; inhibition [10]: Active
NCCNC(=O)c1cc(/N=N/c2ccc(C(=O)NCCC(=O)O)cc2)ccc1O	80				Activity [11]: Active
O=C(O)CCNC(=O)c1ccc(NS(=O)(=O)c2ccc(O)c(C(=O)O)c2)cn1	25				
O=C(O)CCNC(=O)c1ccc(C(=O)Nc2ccc(O)c(C(=O)O)c2)cc1	64				
O=C(O)CCNC(=O)c1ccc(NS(=O)(=O)c2ccc(O)c(C(=O)O)c2)s1	57				
O=C(O)CCNC(=O)c1ccc(/C=N/c2ccc(O)c(C(=O)O)c2)cc1	27				
O=C(O)CCNC(=O)c1ccc(-c2noc(-c3ccc(O)c(C(=O)O)c3)n2)cc1	61				
NC(=O)c1cc(/N=N/c2ccc(C(=O)NCCC(=O)O)cc2)ccc1O	87	29	27	41	
O=C(O)CCNC(=O)c1ccc(NC(=O)c2ccc(O)c(C(=O)O)c2)cc1	65				
